From BindingDB's records for doi:10.1074/jbc.M707463200 (National Cancer Institute-Bethesda, 2008)

Columns and labels:
Test in all cases: Binding Assay
Conditions in all cases: pH 7.4; 18 °C
[1] = target: Serine/threonine-protein kinase MRCK alpha (Homo sapiens, UniProt Q5VT25)
Protocol: (§1) [3H]PDBu binding to the C1 domains of MRCK alpha/beta and PKC alpha/delta was measured using the polyethylene glycol precipitation assay.

[2] = target: Serine/threonine-protein kinase MRCK beta (Homo sapiens, UniProt Q9Y5S2)
Protocol: as §1

[3] = target: Protein kinase C alpha type (Homo sapiens, UniProt P17252)
Protocol: as §1

[4] = target: Protein kinase C delta type (Homo sapiens, UniProt Q05655)
Protocol: as §1

Chain of Serine/threonine-protein kinase MRCK beta (Q9Y5S2 whole entry): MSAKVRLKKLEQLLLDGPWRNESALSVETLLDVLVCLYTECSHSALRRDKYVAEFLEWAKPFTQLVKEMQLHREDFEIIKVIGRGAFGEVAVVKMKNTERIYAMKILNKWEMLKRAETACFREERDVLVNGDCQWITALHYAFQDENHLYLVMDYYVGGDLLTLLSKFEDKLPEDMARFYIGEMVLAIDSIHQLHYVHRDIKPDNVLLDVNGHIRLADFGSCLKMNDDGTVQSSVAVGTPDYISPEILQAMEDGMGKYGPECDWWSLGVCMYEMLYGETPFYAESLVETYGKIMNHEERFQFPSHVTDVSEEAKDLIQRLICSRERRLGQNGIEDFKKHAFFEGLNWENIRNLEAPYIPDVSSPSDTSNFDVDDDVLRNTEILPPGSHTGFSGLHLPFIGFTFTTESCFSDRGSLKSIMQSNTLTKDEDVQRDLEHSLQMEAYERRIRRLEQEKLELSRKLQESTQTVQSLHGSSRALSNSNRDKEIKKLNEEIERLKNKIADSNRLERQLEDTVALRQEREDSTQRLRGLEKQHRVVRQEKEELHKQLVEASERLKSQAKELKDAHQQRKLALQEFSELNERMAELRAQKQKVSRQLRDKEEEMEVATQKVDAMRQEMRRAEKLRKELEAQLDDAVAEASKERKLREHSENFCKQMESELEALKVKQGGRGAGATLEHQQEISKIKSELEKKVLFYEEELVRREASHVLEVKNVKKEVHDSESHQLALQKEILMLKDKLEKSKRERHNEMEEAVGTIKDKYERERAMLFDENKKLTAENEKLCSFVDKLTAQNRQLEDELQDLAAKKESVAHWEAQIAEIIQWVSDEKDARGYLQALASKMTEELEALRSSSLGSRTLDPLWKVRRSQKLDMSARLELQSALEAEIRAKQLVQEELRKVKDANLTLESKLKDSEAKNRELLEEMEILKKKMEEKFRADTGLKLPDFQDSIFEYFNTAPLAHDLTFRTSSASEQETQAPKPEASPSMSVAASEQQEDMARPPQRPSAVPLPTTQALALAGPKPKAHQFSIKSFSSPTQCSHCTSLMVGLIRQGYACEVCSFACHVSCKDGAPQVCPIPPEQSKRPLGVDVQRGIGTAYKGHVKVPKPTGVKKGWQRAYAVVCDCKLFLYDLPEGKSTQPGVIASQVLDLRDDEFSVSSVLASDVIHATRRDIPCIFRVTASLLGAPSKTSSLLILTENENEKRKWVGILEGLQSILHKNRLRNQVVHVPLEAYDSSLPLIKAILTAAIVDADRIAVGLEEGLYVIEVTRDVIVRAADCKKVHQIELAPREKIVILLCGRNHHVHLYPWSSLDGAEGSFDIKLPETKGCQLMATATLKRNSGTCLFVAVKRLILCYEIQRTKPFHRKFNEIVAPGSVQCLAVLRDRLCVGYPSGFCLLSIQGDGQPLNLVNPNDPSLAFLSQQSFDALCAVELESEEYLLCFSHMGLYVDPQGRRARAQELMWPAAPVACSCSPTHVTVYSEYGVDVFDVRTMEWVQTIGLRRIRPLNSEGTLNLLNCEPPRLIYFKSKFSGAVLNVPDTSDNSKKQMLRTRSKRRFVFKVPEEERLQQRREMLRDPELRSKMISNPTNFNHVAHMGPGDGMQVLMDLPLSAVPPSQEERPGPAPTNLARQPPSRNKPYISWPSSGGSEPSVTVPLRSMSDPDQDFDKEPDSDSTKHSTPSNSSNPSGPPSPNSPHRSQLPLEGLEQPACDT
Chain of Serine/threonine-protein kinase MRCK alpha (Q5VT25 whole entry, the tested form may be a part): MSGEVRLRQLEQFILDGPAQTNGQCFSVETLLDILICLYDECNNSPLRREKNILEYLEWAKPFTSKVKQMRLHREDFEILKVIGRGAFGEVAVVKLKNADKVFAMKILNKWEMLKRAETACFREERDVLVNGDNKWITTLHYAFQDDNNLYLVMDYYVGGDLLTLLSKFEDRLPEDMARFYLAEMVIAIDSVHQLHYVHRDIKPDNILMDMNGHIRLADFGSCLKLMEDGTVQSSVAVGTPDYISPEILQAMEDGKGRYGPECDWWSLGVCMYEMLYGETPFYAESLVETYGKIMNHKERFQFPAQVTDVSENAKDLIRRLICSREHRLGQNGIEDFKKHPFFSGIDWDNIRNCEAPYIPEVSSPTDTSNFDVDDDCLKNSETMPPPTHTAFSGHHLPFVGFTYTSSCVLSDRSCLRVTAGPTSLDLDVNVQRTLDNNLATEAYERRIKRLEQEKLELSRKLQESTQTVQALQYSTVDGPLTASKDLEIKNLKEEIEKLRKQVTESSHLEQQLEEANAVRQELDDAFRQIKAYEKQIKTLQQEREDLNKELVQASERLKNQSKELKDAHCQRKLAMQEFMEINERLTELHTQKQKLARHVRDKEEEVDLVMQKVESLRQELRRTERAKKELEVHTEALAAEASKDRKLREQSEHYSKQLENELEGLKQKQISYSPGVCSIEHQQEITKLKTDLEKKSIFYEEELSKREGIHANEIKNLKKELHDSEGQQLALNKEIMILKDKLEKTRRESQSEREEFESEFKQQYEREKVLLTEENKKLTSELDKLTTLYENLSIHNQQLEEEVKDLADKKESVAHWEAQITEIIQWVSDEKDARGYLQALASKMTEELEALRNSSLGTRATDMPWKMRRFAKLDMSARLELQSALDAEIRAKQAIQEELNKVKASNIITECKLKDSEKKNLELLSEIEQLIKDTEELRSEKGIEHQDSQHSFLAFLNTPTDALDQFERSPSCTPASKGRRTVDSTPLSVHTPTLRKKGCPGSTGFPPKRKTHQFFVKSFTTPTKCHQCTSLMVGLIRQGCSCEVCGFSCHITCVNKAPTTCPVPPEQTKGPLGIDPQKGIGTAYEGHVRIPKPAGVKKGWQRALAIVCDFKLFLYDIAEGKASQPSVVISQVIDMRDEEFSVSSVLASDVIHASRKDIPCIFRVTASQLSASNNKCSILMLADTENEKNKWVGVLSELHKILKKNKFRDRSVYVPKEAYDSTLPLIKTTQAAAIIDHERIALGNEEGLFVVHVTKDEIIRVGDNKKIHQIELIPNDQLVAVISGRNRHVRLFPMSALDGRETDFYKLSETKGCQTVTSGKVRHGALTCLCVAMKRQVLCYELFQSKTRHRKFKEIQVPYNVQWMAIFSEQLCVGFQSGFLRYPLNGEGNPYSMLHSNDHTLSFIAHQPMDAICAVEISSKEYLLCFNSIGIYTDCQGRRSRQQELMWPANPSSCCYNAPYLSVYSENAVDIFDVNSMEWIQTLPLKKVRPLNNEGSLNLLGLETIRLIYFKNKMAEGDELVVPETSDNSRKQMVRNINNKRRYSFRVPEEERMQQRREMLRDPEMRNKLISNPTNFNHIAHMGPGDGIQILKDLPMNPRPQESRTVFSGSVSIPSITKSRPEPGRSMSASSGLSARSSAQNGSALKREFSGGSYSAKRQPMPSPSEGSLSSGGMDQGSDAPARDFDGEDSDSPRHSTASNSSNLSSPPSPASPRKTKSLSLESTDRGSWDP
Chain of Protein kinase C delta type (Q05655 whole entry): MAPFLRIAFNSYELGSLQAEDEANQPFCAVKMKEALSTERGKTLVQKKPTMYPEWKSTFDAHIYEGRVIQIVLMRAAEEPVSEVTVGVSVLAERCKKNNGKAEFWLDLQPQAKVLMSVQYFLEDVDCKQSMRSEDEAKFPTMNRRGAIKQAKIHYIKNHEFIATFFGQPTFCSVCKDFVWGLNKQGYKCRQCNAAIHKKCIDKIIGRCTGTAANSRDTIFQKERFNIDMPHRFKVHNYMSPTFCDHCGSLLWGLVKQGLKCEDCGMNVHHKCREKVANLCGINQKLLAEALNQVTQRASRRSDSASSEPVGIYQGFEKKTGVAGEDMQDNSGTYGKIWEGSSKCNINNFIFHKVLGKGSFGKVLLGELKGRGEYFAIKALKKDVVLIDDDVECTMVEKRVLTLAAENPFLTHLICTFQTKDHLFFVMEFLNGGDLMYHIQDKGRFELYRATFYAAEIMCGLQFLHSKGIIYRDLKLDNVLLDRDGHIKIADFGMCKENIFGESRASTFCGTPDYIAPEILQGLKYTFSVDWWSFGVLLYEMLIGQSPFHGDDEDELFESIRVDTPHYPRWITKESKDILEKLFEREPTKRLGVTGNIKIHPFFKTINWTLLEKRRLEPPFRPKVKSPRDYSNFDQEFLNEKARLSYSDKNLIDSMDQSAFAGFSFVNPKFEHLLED

Row | SMILES | Ki [1] | Ki [2] | Ki [3] | Ki [4]
1 | CCCCCCCC(=O)OC[C@H](CO)OC(=O)CCCCCCC | 2820 nM | 6960 nM | – | –
2 | CN(C)c1ccc(/C=C2/CC(CO)(COC(=O)c3ccc([N+](=O)[O-])cc3)OC2=O)cc1 (centres undefined) [DAG-lactone (130C045)] | 22600 nM | 26000 nM | 4200 nM | 1.54 nM
3 | CC(C)CC(C/C=C1/CC(CO)(COC(=O)C(C)(C)C)OC1=O)CC(C)C (centres undefined) [DAG-lactone (HK-434)] | 1030 nM | 1070 nM | 402 nM | –
